Target: Prothrombin (Homo sapiens) (UniProt P00734)
Assay: Inhibitory activity against human thrombin

Point of comparison: `COc1cc(Cn2c(-c3ccc(OCCN4CCCC4)cc3)nc3cc(CO)ccc32)ccc1CN1CCCC1`, K ass 1.93e+06 l M-1. Against it:
- COc1cc(Cc2c(-c3ccc(OCCN4CCCC4)cc3)sc3ccccc23)ccc1CN1CCCC1 — higher, 1.26e+08 l M-1
- COc1cc(Cn2c(-c3ccc(OCCN4CCCC4)cc3)nc3ccccc32)ccc1CN1CCCC1 — higher, 1.19e+07 l M-1
- COc1cc(Cn2c(-c3ccc(OCCCC(=O)O)cc3)cc3ccccc32)ccc1CN1CCCC1 — higher, 6.41e+06 l M-1
- COc1cc(Cn2c(-c3ccc(OCCn4cccn4)cc3)nc3ccccc32)ccc1CN1CCCC1 — lower, 1.46e+06 l M-1
- COC(=O)CCCOc1ccc(-c2cc3ccccc3n2Cc2ccc(CN3CCCC3)c(OC)c2)cc1 — higher, 2.47e+07 l M-1
- COc1cc(Cn2c(-c3ccc(OCCN4CCCC4)cc3)nc3cc(O)ccc32)ccc1Cn1ccnn1 — higher, 1.02e+07 l M-1
- COc1cc(Cn2c(-c3ccc(OCCN4CCCC4=O)cc3)nc3ccccc32)ccc1CN1CCCC1 — higher, 1.5e+07 l M-1
- c1ccc2c(c1)nc(-c1ccc(OCCN3CCCC3)cc1)n2Cc1ccc(OCCN2CCCC2)cc1 — lower, 332000 l M-1
- c1ccc2c(Cc3ccc(OCCN4CCCC4)cc3)c(-c3ccc(OCCN4CCCC4)cc3)[nH]c2c1 — lower, 42000 l M-1
- COc1cc(Cn2c(-c3ccc(OCCN4CCCC4)cc3)nc3cc(O)ccc32)ccc1Cn1cccn1 — higher, 1.2e+07 l M-1
- COc1cc(Cn2c(-c3ccc(OCCN4CCCC4)cc3)nc3cc(CN)ccc32)ccc1CN1CCCC1 — higher, 4.49e+06 l M-1
- O=C(c1ccc(OCCN2CCCC2)cc1)c1c(-c2ccc(OCCN3CCCC3)cc2)sc2ccccc12 — lower, 410000 l M-1
- COC(=O)CCCOc1ccc(-c2sc3ccccc3c2Cc2ccc(CN3CCCC3)c(OC)c2)cc1 — higher, 7.68e+06 l M-1
- COc1cc(Cc2c(-c3ccc(OCCN4CCCC4)cc3)sc3cc(O)ccc23)ccc1CN1CCCC1 — higher, 8.15e+08 l M-1
- COc1cc(Cn2c(-c3ccc(OCCN4CCCC4)cc3)nc3cc(O)ccc32)ccc1NCc1ccccc1 — higher, 1.65e+07 l M-1
- c1ccc2c(Cc3ccc(OCCN4CCCC4)cc3)c(-c3ccc(OCCN4CCCC4)cc3)oc2c1 — lower, 974000 l M-1
- COc1cc(Cn2c(-c3ccc(OCCN4CCCC4)cc3)cc3ccncc32)ccc1C(=O)N1CCCC1 — higher, 5.97e+07 l M-1
- COc1cc(Cn2c(-c3ccc(OCCCCO)cc3)cc3ccccc32)ccc1CN1CCCC1 — higher, 3.37e+07 l M-1
- COc1cc(Cc2c(-c3ccc(OCCCC(=O)O)cc3)sc3ccccc23)ccc1CN1CCCC1 — higher, 3.91e+06 l M-1
- COc1cc(Cn2c(-c3ccc(OCCN4CCCC4)cc3)nc3cc(O)ccc32)ccc1Cn1ccnc1 — higher, 9.6e+06 l M-1
- COc1cc(Cc2c(-c3ccc(OCCCCO)cc3)sc3ccccc23)ccc1CN1CCCC1 — higher, 1.49e+07 l M-1
- c1ccc2c(c1)cc(-c1ccc(OCCN3CCCC3)cc1)n2Cc1ccc(OCCN2CCCC2)cc1 — higher, 6.27e+06 l M-1
- COc1cc(Cn2c(-c3ccc(OCCN4CCCC4)cc3)nc3cc(O)ccc32)ccc1CN1CCCC1 — higher, 9.72e+06 l M-1
- COc1cc(Cn2c(-c3ccc(OCCN4CCCC4)cc3)cc3cnccc32)ccc1C(=O)N1CCCC1 — higher, 8.37e+07 l M-1
- COc1cc(Cn2c(-c3ccc(OCCN4CCCC4)cc3)cc3ccccc32)ccc1CN1CCCC1 — higher, 1.97e+08 l M-1
- COc1cc(Cn2c(-c3ccc(OCCN4CCCC4)cc3)cc3cnccc32)ccc1CN1CCCC1 — higher, 7.39e+07 l M-1
